Laboratory results published in patent US11827663B2, “Use of UAP inhibitors to inhibit flux through the hexosamine biosynthetic pathway” (The Johns Hopkins University, priority 2014, dated 2023).
Entries after “also recorded” stand apart in the source; their conditions may differ. Read-outs that look alike come from different tables or passages of the source.

Experiments:
Format in all cases: cell-based
SW1990 cells = experiment: Cell count / cell proliferation assay in SW1990 cells; details: for IC50: Homo sapiens
Description: FIG. 3 depicts the result of cell count assays after two days of incubation with an exemplary compound, Ac4Glc2Bz. The cells treated with the compound are, respectively, SW1990 and PANC-1, which are pancreatic cancer cell lines. Meanwhile, control samples were treated with solvent vehicle of 2.5 μL DMSO per 1 mL of medium.
(§1) FIGS. 5A and 5B show the results of cell toxicity experiments that were conducted on SW1990 and PANC-1 cells with the analogs indicated. Cells were counted after incubation with each analog for 48 hours. Cell counts were then normalized to controls, data was log transformed, and IC50 values were calculated. […]
(§2) Cells were incubated at a range of concentrations of the UAP inhibitors (typically at 0, 10, 25, 50, 100, and 150 μM) and the number of cells were quantified, typically by automated counting (e.g., with a Coulter Counter Z2 instrument) after 1, 2, 3, or 5 days of exposure.

[1] = test system: primary glioblastoma cell line 612; experiment: Cell count of primary glioblastoma line 612
Description: FIG. 7A depicts the results of primary glioblastoma lines 612 and GS1049 after incubation for 48 h with Ac4Glc2Bz followed by cell counting and normalization to untreated controls. The data is log transformed to easily determine IC50 values. FIG. 7B and FIG. 7C depict the measurement of proliferation of the primary glioblastoma lines after 48 h incubation with Ac4Glc2Bz using a MTT assay.
Furthermore, cell morphologies were grossly altered as concentrations of Ac4Glc2Bz were increased, which likely indicated severe metabolic stress, induction of apoptosis, and possibly altered adhesion.
as §2

c-MYC = experiment: Western blot of c-MYC; details: SW1990, PANC-1, 612 and GS1049 cells, 125 μM or 250 μM
Description: Proteins from treated cells were obtained by lysing cells in RIPA buffer (SIGMA) supplemented with Protease Inhibitor Cocktail (1:100), Phosphatase Inhibitor Cocktail 2 (SIGMA) (1:100), and Phosphatase Inhibitor Cocktail 3 (SIGMA)(1:100). SDS-PAGE was performed followed by western blotting for c-MYC (Cell Signaling) and β-actin (SIGMA).

[2] = test system: N-glycans of SW1990 cells; experiment: Mass spectrometry of cell surface N-glycans in SW1990 cells; details: 100 μM
Description: FIGS. 18A-18B present mass spectrometry results showing levels of N-glycans (lower molecular weight glycans) and high molecular weight glycans following treatments with Ac4Glc2Bz (100 μM) in SW1990 cells.
(a) Cell surface N-Glycans. After two days of incubation with analog (a length of time sufficient to observe maximal “metabolic glycoengineering” effects (Biotechnol Bioeng 85, 394-405 (2004); Biotechnol Bioeng 109, 992-1006 (2012); Mol Cell Proteomics, 10.1074/mcp.M1112.017558 (2012); Glycobiology 19, 1382-1401 (2009); Nature Protocols 2, 1585-1602 (2007)), cells treated with PNGaseF, N-glycans were collected, and analyzed by following a recently developed protocol that optimizes sialic acid detection and quantification (Anal Chem 85, 3606-3613 (2013)). As previously developed, automated methods were used to analyze mass spectroscopy data to detect phenyl-modified sugars in glycan structures. This analysis was valuable to monitor whether any phenyl-modified analog was biosynthetically processed (instead or in addition to inhibiting UAP) and incorporated into cellular glycans.
For example, as shown in FIGS. 18A-18B, SW1990 cells were treated with Ac4Glc2Bz (100 μM), and the cell extracts were analyzed by mass spectrometry.

PANC-1 cells = experiment: Cell count / cell proliferation assay in PANC-1 cells; details: Homo sapiens
Description: as §1, §2

YAP/TAZ = experiment: Western blot of YAP/TAZ
Description: FIGS. 10A and 10B show the western blot results from primary glioblastoma cell lines 612 (FIG. 10A) (these cells were a kind gift of Dr. Quinones-Hinojosa (School of Medicine, Johns Hopkins University), who obtained the cells from cancer patients) and GS1049 (FIG. 10B) that were incubated for 48 h with Ac4Glc2Bz at the indicated concentrations. Each cell line was probed for the proteins Yes Associated Protein (YAP), transcriptional coactivator with PDZ-binding motif (TAZ), phosphorylated Yes Associated Protein (p-YAP), and Glyceraldehyde 3-phosphate dehydrogenase (GAPDH control). […] YAP/TAZ are two key mediators that act to […] the Hippo pathway, which helps to promote oncogenesis, metastasis, and cancer cell survival in circulation. Until now, there were no known small molecule pharmacological agents capable of decreasing YAP/TAZ expression. These studies helped illustrate the extraordinarily powerful potential of UAP1/2 inhibitors as truly disease modifying candidates, especially in cancer.
In addition, in FIG. 22B, YAP western blot results from Ac4Glc2Bz cells were obtained where shRNA knockdown of UAP1 was performed using lentiviral methods in PANC-1 cells (n=3). Similar to above, UAP1 in PANC-1 cells was knocked down using lentiviral vectors followed by 1 week selection using puromycin. […]

CC(=O)OCC1OC(OC(C)=O)[C@@H](NC(=O)c2ccccc2)[C@@H](OC(C)=O)[C@@H]1OC(C)=O (stereo partly shown) [Ac4Glc2Bz]
IC50 (SW1990 cells; SW1990, 48 h, cell count after two days of incubation, FIG. 3, read-out: IC50 of reduction of cell numbers, SW1990): ~50 µM | IC50 (SW1990 cells; SW1990, cells counted after 48 hours incubation, normalized to controls, read-out: Estimated IC50 values, SW1990): 25.8 ± 1.5 µM | effect on SW1990 cell numbers / proliferation (SW1990 cells; in words): lowest IC50 value | cell densities under a microscope ([1]; 612 cells treated for 48 hours, FIG. 11): striking reduction in cell densities in a dose dependent manner | IC50 ([1]; 48 h incubation, cell counting normalized to untreated controls, read-out: Estimated IC50 values, 612): 36.2 ± 1.1 µM | c-MYC expression (c-MYC): reduce c-MYC expression in a dose-dependent manner; also recorded: altered | amplitude of peaks for N-glycans (lower molecular weight glycans) [2]: not significantly reduced | peaks for high molecular weight glycans [2]: quantitative changes were identified | IC50 (PANC-1 cells; PANC-1, 48 h, cell count after two days of incubation, FIG. 3, read-out: IC50 of reduction of cell numbers, PANC-1): ~50 µM | IC50 (PANC-1 cells; PANC-1, FIG. 5B, read-out: IC50 of PANC-1 cell proliferation): ~45 µM | IC50 (PANC-1 cells; PANC-1, cells counted after 48 hours incubation, normalized to controls, read-out: Estimated IC50 values, PANC-1): 45.5 ± 1.2 µM | protein expression of YAP/GAPDH (YAP/TAZ; as described in Example 5): reduce protein expression of YAP/GAPDH in a dose-dependent manner | protein expression of YAP/TAZ (YAP/TAZ; primary glioblastoma cell lines 612 and GS1049, 48 h): virtually abolished
